# Experimental data reported in patent publication US10881642B2, “Autophagy enhancer and use thereof” (Industry-Academic Cooperation Foundation, Yonsei University, priority 2016, dated 2021).
# Tested on: HFD-fed C57BL/6 mice
# Assay: Metabolic profile of HFD-fed mice (diet-induced obesity)
# Format: in vivo
# Details: for non-fasting blood glucose level: 50 mg/kg 3 times a week
# Procedure: FIG. 12 indicates the improvement of the metabolic profile of HFD-feed mice by MSL-7: (FIG. 12A) Confocal microscopic result of HeLa cells transfected with tandem mRFP-GFP-LC3 and treated with MSL-7 in which red puncta indicates autophagolysosome. (FIG. 12B, 12C) 8 week old male C57BL/6 mice were fed with HFD or normal chow diet (NCD) for 8 weeks, and then 50 mg/kg MSL-7 was administered three times a week for 8 weeks. Non-fasting glucose level (FIG. 12B) and body weight (FIG. 12C) were monitored. (FIG. 12D) IPGTT. (FIG. 12E) AUC curve of (FIG. 12D). (FIG. 12F) ITT. (FIG. 12G) AUC curve of (FIG. 12F).
# Screening of autophagy enhancer. […] Luciferase assay. Firefly and Renilla luciferase assays were conducted using the Dual-Luciferase Reporter Assay System (Promega) according to the manufacturer's recommendation. In brief, cells were lysed in 1× lysis buffer and subjected to a single round of freezing/thawing. Firefly luciferase was determined after mixing 5 μl of lysate with 25 μl of Luciferase Assay Reagent II. Renilla luciferase was then determined after further addition of 20 ul of Stop&Glo Reagent. Cell culture and media and drugs treatment. HeLa, TFEB-GFP-HeLa, SK-HEP1 (hepatoma cell line) and Hepa1c1c7 (hepatoma cell line) cells were cultured in the following media: (normal) Dulbecco's modified Eagle's medium (DMEM, Sigma-Aldrich) supplemented with 10% FBS and 1% penicillin/streptomycin; (starvation) HBSS media with Ca and Mg supplemented with 10 mM HEPES; Drugs treatment: MSL compound (50-100 μM); Rapamycin ([…]); Torin-1 (1 μM); Bafilomycin (100 nM); Cyclosporin A (10 μM); and FK506 (5 μM). Cells were treated with oleic acid (400 μM) and palmitic acid (400 μM) for 24 h. Where indicated, cells were washed off with HBSS and replaced by DMEM with or without MSL for 16 h. INS-1 cells, a insulinoma cell line of […] were cultured as described previously (Kim et al., 2014 ibid) in the presence or absence of bafilomycin and treated with MSL-7. Lactate dehydrogenase (LDH) assay. Cytotoxicity was determined by the measurement of LDH release in cell culture media using the LDH kit (Roche), according to the protocol from the manufacturer. Transfection and plasmids. Cells were transiently transfected with DNA plasmids 3×FLAG-hTFEB (A Ballabio), FYVE-dsRed (Cantley LC), RFP-LC3 or mRFP-GFP-LC3 using lipofectamine 2000 (Invitrogen) according to the protocol from the manufacturer. INS-1 cells were transfected with prepro-mIAPP-HA or prepro-hIAPP-HA using jetPEIDNA according to the manufacturer's protocol. Imaging and image quantification. Imaging was performed with a ×40 objective on an LSM780 confocal microscope (Zeiss). Image analysis (spot count per cell) was performed using Image J. When indicated, cells were stained for lipid droplets with BODIPY 493/503 (Invitrogen, […], 20 min) according to the manufacturer's methods. Formation of acidic vesicular organelles was quantitated by staining the cells with acridine orange (Invitrogen, 5 ug/ml, 10 min). Antibodies and western blotting. Cells or tissues were solubilized in lysis buffer supplemented with protease and phosphatase inhibitors and protein concentration was measured by the Bradford method. Ten to 30 micrograms were loaded on 4-12% Bis-Tris gel (NUPAGE, Invitrogen) or 8-15% SDS-PAGE, transferred to PVDF membranes and analyzed by western blot using the ECL method (Pierce). The following antibodies were used: LC3 (Novus NB100-2331, 1:1,000), p62 (Progen GP62-C, 1:1,000), b-actin (Santa Cruz sc-47778, 1:5,000), FLAG (Sigma-Aldrich F1804, 1:2,000), 70S6K (Cell Signaling 9202S, 1:1000), p-70S6K (Cell Signaling 9206S, 1:1000), mTOR (Cell Signaling 2983, 1:1000), pmTOR (Cell Signaling 2971S, 1:1000), TFEB (Cell Signaling 4240, 1:1000). Protein levels were quantified by using ImageJ software analysis. RNA extraction, RT and real-time RT-PCR. […]
SMILES,"non-fasting blood glucose level (HFD, 8 weeks)","area under the curves (AUCs) of IPGTT and ITT (HFD, 8 weeks)","body weight (HFD, 8 weeks)","glucose tolerance / glucose intolerance (IPGTT) (HFD, 8 weeks)","insulin sensitivity (ITT) (HFD, 8 weeks)",glucose profile of lean or chow-fed mice (lean or chow-fed mice)
"COc1oc(-c2ccccc2Cl)nc1S(=O)(=O)c1ccccc1 [MSL-7, 2-(2-chlorophenyl)-5-methoxy-4-(phenylsulfonyl) oxazole]",significantly reduced,reduced,without changing the body weight,significantly improved,significantly improved,does not affect
CSc1oc(-c2ccccc2)nc1S(=O)(=O)c1ccc(F)cc1 [MSL],"reduced non-fasting blood glucose level and glucose intolerance in mice fed high-fat diet (HFD). however, statistical significance was not achieved for most comparisons",,,"reduced non-fasting blood glucose level and glucose intolerance in mice fed high-fat diet (HFD). however, statistical significance was not achieved for most comparisons",,
